In brackets after ≈: the same amount, converted by molar mass.
Columns and labels:
[1] = tested on: Bacillus anthracis; assay: Antibacterial activity against Bacillus anthracis Sterne F32; type: functional
[2] = tested on: Staphylococcus aureus; assay: Antibacterial activity against Staphylococcus aureus ATCC 25923; type: functional
[3] = tested on: Staphylococcus epidermidis; assay: Antibacterial activity against Staphylococcus epidermidis ATCC 12228; type: functional
[4] = tested on: Escherichia coli; assay: Antibacterial activity against Escherichia coli MC1061; type: functional
[5] = tested on: Enterobacter cloacae; assay: Antibacterial activity against Enterobacter cloacae ATCC 13047; type: functional
[6] = tested on: Klebsiella pneumoniae; assay: Antibacterial activity against Klebsiella pneumoniae ATCC 27736; type: functional
[7] = tested on: Pseudomonas aeruginosa; assay: Antibacterial activity against Pseudomonas aeruginosa ATCC 27853; type: functional
[8] = tested on: Salmonella enterica; assay: Antibacterial activity against Salmonella enterica ATCC 14028; type: functional
[9] = tested on: Acinetobacter baumannii; assay: Antibacterial activity against Acinetobacter baumannii ATCC 19606; type: functional
[10] = tested on: Acinetobacter baumannii; assay: Antibacterial activity against Acinetobacter baumannii BAA1605; type: functional
[11] = tested on: HEK293; assay: Cytotoxicity against HEK293 cells at 8 ug/ml; type: toxicity, cell-based; conditions: human, dose 8 µg/ml
[12] = Hemolytic activity in mouse RBC at 8 ug/ml incubated for 1 hr; type: toxicity, cell-based, Erythrocyte; conditions: red blood cells (erythrocytes), at 8 µg/mL, read-out: Activity
[13] = tested on: Erythrocyte; assay: Hemolytic activity in mouse RBC at 32 ug/ml incubated for 1 hr; type: toxicity, cell-based; conditions: erythrocyte, 1 h, dose 32 µg/ml

SMILES | MIC [1] | MIC [2] | MIC [3] | MIC [4] | MIC [5] | MIC [6] | MIC [7] | MIC [8] | MIC [9] | MIC [10] | Activity [11] | hemolysis at 1 h, 8 ug/ml [12] | Activity [13]
O=C(NNc1ccc(Cl)cc1)c1cc2ccccc2[nH]1 | > 64 µg/mL | > 64 µg/mL | > 64 µg/mL | > 64 µg/mL | > 64 µg/mL | > 64 µg/mL | > 64 µg/mL | > 64 µg/mL | 0.5 µg/mL (≈ 1.75 µM) | 0.25 µg/mL (≈ 0.875 µM) | Non-Toxic | < 10% | Non-Toxic
O=C(NNc1ccc(Cl)cc1)c1ncc(F)cc1F | – | – | – | – | – | – | – | – | – | – | Non-Toxic | < 10% | Non-Toxic
O=C(NNc1ccc(Cl)cc1)c1ccco1 | > 64 µg/mL | 64 µg/mL (≈ 270 µM) | 64 µg/mL (≈ 270 µM) | 16 µg/mL (≈ 67.6 µM) | 4 µg/mL (≈ 16.9 µM) | 16 µg/mL (≈ 67.6 µM) | > 64 µg/mL | 16 µg/mL (≈ 67.6 µM) | 0.5 µg/mL (≈ 2.11 µM) | ≤ 0.125 µg/mL | Non-Toxic | < 10% | Non-Toxic
COc1cccc(NNC(=O)c2ccc(F)cn2)c1 | > 64 µg/mL | > 64 µg/mL | 64 µg/mL (≈ 245 µM) | > 64 µg/mL | > 64 µg/mL | > 64 µg/mL | > 64 µg/mL | > 64 µg/mL | 0.5 µg/mL (≈ 1.91 µM) | 0.5 µg/mL (≈ 1.91 µM) | Non-Toxic | < 10% | Non-Toxic
O=C(NNc1ccc(Cl)cc1)c1nc(F)ccc1F | – | – | – | – | – | – | – | – | – | – | Non-Toxic | < 10% | Non-Toxic
O=C(NNC1CCCCC1)c1ccc(F)cc1F | – | – | – | – | – | – | – | – | – | – | Non-Toxic | < 10% | Non-Toxic
CCOC(=O)CNNC(=O)c1ccc(F)cc1F | – | – | – | – | – | – | – | – | – | – | Non-Toxic | < 10% | Non-Toxic
COc1ccc(NNC(=O)c2ccc(F)cn2)cc1 | > 64 µg/mL | > 64 µg/mL | > 64 µg/mL | > 64 µg/mL | > 64 µg/mL | > 64 µg/mL | > 64 µg/mL | > 64 µg/mL | 1 µg/mL (≈ 3.83 µM) | 0.5 µg/mL (≈ 1.91 µM) | Non-Toxic | < 10% | Non-Toxic
O=C(NNc1cccc(F)c1)c1cnc2ccccc2n1 | – | – | – | – | – | – | – | – | – | – | Non-Toxic | < 10% | Non-Toxic
O=C(NNC1CCCCC1)c1cccnc1 | – | – | – | – | – | – | – | – | – | – | Non-Toxic | < 10% | Non-Toxic
O=C(NNc1cccc(F)c1)c1cnccn1 | – | – | – | – | – | – | – | – | – | – | Non-Toxic | < 10% | Non-Toxic
O=C(NNC1CCCCC1)c1ccc2ccccc2n1 | > 64 µg/mL | > 64 µg/mL | > 64 µg/mL | 64 µg/mL (≈ 238 µM) | > 64 µg/mL | > 64 µg/mL | > 64 µg/mL | > 64 µg/mL | > 64 µg/mL | > 64 µg/mL | Non-Toxic | < 10% | Non-Toxic
O=C(NNc1ccc(Cl)cc1)c1ccccn1 | > 64 µg/mL | > 64 µg/mL | > 64 µg/mL | 16 µg/mL (≈ 64.6 µM) | 64 µg/mL (≈ 258 µM) | 64 µg/mL (≈ 258 µM) | > 64 µg/mL | 64 µg/mL (≈ 258 µM) | 0.25 µg/mL (≈ 1.01 µM) | 0.25 µg/mL (≈ 1.01 µM) | Non-Toxic | < 10% | Non-Toxic
O=C(NNc1cccc(F)c1)c1ccccc1 | – | – | – | – | – | – | – | – | – | – | Non-Toxic | < 10% | Non-Toxic
O=C(NNc1cccc(F)c1)c1ccco1 | – | – | – | – | – | – | – | – | – | – | Non-Toxic | < 10% | Non-Toxic
CCC(=O)NNc1cccc(F)c1 | – | – | – | – | – | – | – | – | – | – | Non-Toxic | < 10% | Non-Toxic
O=C(NNc1cccc(Cl)c1)c1ccccn1 | > 64 µg/mL | > 64 µg/mL | > 64 µg/mL | 4 µg/mL (≈ 16.1 µM) | 4 µg/mL (≈ 16.1 µM) | 16 µg/mL (≈ 64.6 µM) | > 64 µg/mL | 16 µg/mL (≈ 64.6 µM) | 2 µg/mL (≈ 8.07 µM) | 1 µg/mL (≈ 4.04 µM) | Non-Toxic | < 10% | Non-Toxic
CCOC(=O)CNNC(=O)c1ccc(F)cn1 | – | – | – | – | – | – | – | – | – | – | Non-Toxic | < 10% | Non-Toxic
O=C(NNc1ccc(Cl)cc1)c1ccccc1 | > 64 µg/mL | 64 µg/mL (≈ 259 µM) | 64 µg/mL (≈ 259 µM) | 16 µg/mL (≈ 64.9 µM) | 16 µg/mL (≈ 64.9 µM) | 16 µg/mL (≈ 64.9 µM) | > 64 µg/mL | 64 µg/mL (≈ 259 µM) | 0.25 µg/mL (≈ 1.01 µM) | 0.5 µg/mL (≈ 2.03 µM) | Non-Toxic | < 10% | Non-Toxic
O=C(NNc1ccc(F)cc1)c1ccc(F)cn1 | > 64 µg/mL | > 64 µg/mL | > 64 µg/mL | 64 µg/mL (≈ 257 µM) | 64 µg/mL (≈ 257 µM) | 64 µg/mL (≈ 257 µM) | > 64 µg/mL | 64 µg/mL (≈ 257 µM) | 0.5 µg/mL (≈ 2.01 µM) | 0.25 µg/mL (≈ 1 µM) | Non-Toxic | < 10% | Non-Toxic
O=C(NNc1cccc(F)c1)c1ccc(Br)cn1 | – | – | – | – | – | – | – | – | – | – | Non-Toxic | < 10% | Non-Toxic

SMILES | MIC [1] | MIC [2] | MIC [3] | MIC [4] | MIC [5] | MIC [6] | MIC [7] | MIC [8] | MIC [9] | MIC [10] | Activity [11] | hemolysis at 1 h, 8 ug/ml [12] | Activity [13]
O=C(NNc1ccc(Cl)cc1)c1cccnc1 | – | – | – | – | – | – | – | – | – | – | Non-Toxic | < 10% | Non-Toxic
O=C(NNc1ccc(Cl)cc1)c1ccc2ccccc2n1 | > 64 µg/mL | > 64 µg/mL | > 64 µg/mL | 16 µg/mL (≈ 53.7 µM) | > 64 µg/mL | > 64 µg/mL | > 64 µg/mL | > 64 µg/mL | 0.5 µg/mL (≈ 1.68 µM) | 0.5 µg/mL (≈ 1.68 µM) | Non-Toxic | < 10% | Non-Toxic
CCOC(=O)CNNC(=O)c1ccccn1 | – | – | – | – | – | – | – | – | – | – | Non-Toxic | < 10% | Non-Toxic
CCC(=O)NNc1ccc(Cl)cc1 | > 64 µg/mL | > 64 µg/mL | > 64 µg/mL | 16 µg/mL (≈ 80.5 µM) | 16 µg/mL (≈ 80.5 µM) | 16 µg/mL (≈ 80.5 µM) | > 64 µg/mL | 64 µg/mL (≈ 322 µM) | ≤ 0.125 µg/mL | ≤ 0.125 µg/mL | Non-Toxic | < 10% | Non-Toxic
O=C(NNc1ccc(Cl)cc1)c1cnc2ccccc2n1 | – | – | – | – | – | – | – | – | – | – | Non-Toxic | < 10% | Non-Toxic
O=C(NNc1cccc(F)c1)c1cccc(Br)n1 | – | – | – | – | – | – | – | – | – | – | Non-Toxic | < 10% | Non-Toxic
O=C(NNc1ccc(Cl)cc1)c1cnccn1 | – | – | – | – | – | – | – | – | – | – | Non-Toxic | < 10% | Non-Toxic
O=C(NNc1cccc(F)c1)c1nc(F)ccc1F | – | – | – | – | – | – | – | – | – | – | Non-Toxic | < 10% | Non-Toxic
COc1cccc(NNC(=O)c2ccccn2)c1 | – | – | – | – | – | – | – | – | – | – | Non-Toxic | < 10% | Non-Toxic
O=C(NNc1cccc(F)c1)c1cc2ccccc2[nH]1 | – | – | – | – | – | – | – | – | – | – | Non-Toxic | < 10% | Non-Toxic
O=C(NNc1cccc(F)c1)c1ccccn1 | – | – | – | – | – | – | – | – | – | – | Non-Toxic | < 10% | Non-Toxic
O=C(NNC1CCCCC1)c1cnccn1 | – | – | – | – | – | – | – | – | – | – | Non-Toxic | < 10% | Non-Toxic
O=C(NNc1cccc(F)c1)c1ccc(F)cc1F | – | – | – | – | – | – | – | – | – | – | Non-Toxic | < 10% | Non-Toxic
O=C(NNc1cccc(F)c1)c1ccc(F)cn1 | > 64 µg/mL | > 64 µg/mL | > 64 µg/mL | 64 µg/mL (≈ 257 µM) | > 64 µg/mL | > 64 µg/mL | > 64 µg/mL | > 64 µg/mL | 0.5 µg/mL (≈ 2.01 µM) | 0.5 µg/mL (≈ 2.01 µM) | Non-Toxic | < 10% | Non-Toxic
C=CC(=O)NNc1ccc(Cl)cc1 | > 64 µg/mL | 64 µg/mL (≈ 325 µM) | 64 µg/mL (≈ 325 µM) | 16 µg/mL (≈ 81.4 µM) | 16 µg/mL (≈ 81.4 µM) | 16 µg/mL (≈ 81.4 µM) | > 64 µg/mL | 16 µg/mL (≈ 81.4 µM) | 0.25 µg/mL (≈ 1.27 µM) | 0.25 µg/mL (≈ 1.27 µM) | Non-Toxic | < 10% | Non-Toxic
CCOC(=O)CNNC(=O)c1cnccn1 | – | – | – | – | – | – | – | – | – | – | Non-Toxic | < 10% | Non-Toxic
O=C(NNc1cccc(F)c1)c1cccnc1 | – | – | – | – | – | – | – | – | – | – | Non-Toxic | < 10% | Non-Toxic
O=C(NNc1cccc(F)c1)c1ncc(F)cc1F | – | – | – | – | – | – | – | – | – | – | Non-Toxic | < 10% | Non-Toxic
O=C(NNc1cccc(F)c1)c1cccc(F)n1 | – | – | – | – | – | – | – | – | – | – | Non-Toxic | < 10% | Non-Toxic
O=C(NNc1ccc(Cl)cc1)c1ccc(F)cc1F | > 64 µg/mL | > 64 µg/mL | > 64 µg/mL | 16 µg/mL (≈ 56.6 µM) | 16 µg/mL (≈ 56.6 µM) | > 64 µg/mL | > 64 µg/mL | > 64 µg/mL | 0.25 µg/mL (≈ 0.884 µM) | 0.25 µg/mL (≈ 0.884 µM) | Non-Toxic | < 10% | Non-Toxic
CCOC(=O)CNNC(=O)c1cccc(F)n1 | – | – | – | – | – | – | – | – | – | – | Non-Toxic | < 10% | Non-Toxic
